Laboratory results as given in PubChem BioAssay (NCI).
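Test compounds were applied to cells in 96-well plates for 48 hours at 5 doses. TGI marks complete inhibition of growth.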

How the values were obtained:
Experiment in all cases: NCI tumour cell line growth inhibition, 48 h
SF-268 CNS = tested on: SF-268 CNS
HCT-116 colon = tested on: HCT-116 colon
COLO 205 colon = tested on: COLO 205 colon
TK-10 renal = tested on: TK-10 renal
HOP-62 NSCLC = tested on: HOP-62 NSCLC
786-0 renal = tested on: 786-0 renal
XF 498 CNS = tested on: XF 498 CNS
SR leukemia = tested on: SR leukemia
M19-MEL melanoma = tested on: M19-MEL melanoma
HOP-92 NSCLC = tested on: HOP-92 NSCLC
EKVX NSCLC = tested on: EKVX NSCLC
DLD-1 colon = tested on: DLD-1 colon
SNB-75 CNS = tested on: SNB-75 CNS
NCI-H460 lung = tested on: NCI-H460 lung
UACC-62 melanoma = tested on: UACC-62 melanoma
OVCAR-5 ovarian = tested on: OVCAR-5 ovarian
MOLT-4 leukemia = tested on: MOLT-4 leukemia
SW-620 colon = tested on: SW-620 colon
A549 NSCLC = tested on: A549 NSCLC
SN12C renal = tested on: SN12C renal
SNB-19 CNS = tested on: SNB-19 CNS
RXF 393 renal = tested on: RXF 393 renal
UACC-257 melanoma = tested on: UACC-257 melanoma
OVCAR-8 ovarian = tested on: OVCAR-8 ovarian
OVCAR-3 ovarian = tested on: OVCAR-3 ovarian
ACHN renal = tested on: ACHN renal
HL-60(TB) leukemia = tested on: HL-60(TB) leukemia
DMS 114 small cell lung = tested on: DMS 114 small cell lung
U251 CNS = tested on: U251 CNS
HOP-18 NSCLC = tested on: HOP-18 NSCLC
KM20L2 colon = tested on: KM20L2 colon
K-562 leukemia = tested on: K-562 leukemia
OVCAR-4 ovarian = tested on: OVCAR-4 ovarian
SNB-78 CNS = tested on: SNB-78 CNS
NCI-H23 lung = tested on: NCI-H23 lung
NCI-H226 lung = tested on: NCI-H226 lung
RPMI-8226 leukemia = tested on: RPMI-8226 leukemia
KM12 colon = tested on: KM12 colon
CAKI-1 renal = tested on: CAKI-1 renal
MALME-3M melanoma = tested on: MALME-3M melanoma
SK-MEL-28 melanoma = tested on: SK-MEL-28 melanoma
M14 melanoma = tested on: M14 melanoma
NCI-H522 lung = tested on: NCI-H522 lung
A498 renal = tested on: A498 renal
IGROV1 ovarian = tested on: IGROV1 ovarian
UO-31 renal = tested on: UO-31 renal
HT29 colon = tested on: HT29 colon
LXFL 529 NSCLC = tested on: LXFL 529 NSCLC
LOX IMVI melanoma = tested on: LOX IMVI melanoma
DMS 273 small cell lung = tested on: DMS 273 small cell lung
CCRF-CEM leukemia = tested on: CCRF-CEM leukemia
SF-295 CNS = tested on: SF-295 CNS
RXF-631 renal = tested on: RXF-631 renal
SK-OV-3 ovarian = tested on: SK-OV-3 ovarian
HCC-2998 colon = tested on: HCC-2998 colon
SF-539 CNS = tested on: SF-539 CNS
SK-MEL-2 melanoma = tested on: SK-MEL-2 melanoma
HCT-15 colon = tested on: HCT-15 colon
SK-MEL-5 melanoma = tested on: SK-MEL-5 melanoma

Measured: TGI

Nc1nc(-c2ccccc2)cc(-c2ccccc2O)n1
68.2 µM: OVCAR-5 ovarian
98.2 µM: TK-10 renal
49 µM: HCT-116 colon
82.4 µM: SNB-75 CNS
28.7 µM: UO-31 renal
80.2 µM: MOLT-4 leukemia
74.9 µM: HOP-62 NSCLC
75.8 µM: RPMI-8226 leukemia
> 100 µM: SF-268 CNS | COLO 205 colon | 786-0 renal | XF 498 CNS | SR leukemia | M19-MEL melanoma | HOP-92 NSCLC | EKVX NSCLC | DLD-1 colon | NCI-H460 lung | UACC-62 melanoma | SW-620 colon | A549 NSCLC | SN12C renal | SNB-19 CNS | UACC-257 melanoma | OVCAR-8 ovarian | OVCAR-3 ovarian | ACHN renal | DMS 114 small cell lung | U251 CNS | HOP-18 NSCLC | KM20L2 colon | K-562 leukemia | OVCAR-4 ovarian | SNB-78 CNS | NCI-H23 lung | CAKI-1 renal | MALME-3M melanoma | SK-MEL-28 melanoma | M14 melanoma | NCI-H522 lung | A498 renal | IGROV1 ovarian | HT29 colon | LXFL 529 NSCLC | LOX IMVI melanoma | DMS 273 small cell lung | CCRF-CEM leukemia | SF-295 CNS | RXF-631 renal | SK-OV-3 ovarian | HCC-2998 colon | SF-539 CNS
53.9 µM: RXF 393 renal
43.5 µM: HL-60(TB) leukemia
53.2 µM: NCI-H226 lung
79.5 µM: KM12 colon

CCOC(=O)N1C(=O)C2C3C=CC(C2C1=O)C1C2C(=O)N(C(=O)OCC)C(=O)C2C31 (centres undefined)
41.1 µM: HL-60(TB) leukemia
> 100 µM: SF-268 CNS | COLO 205 colon | TK-10 renal | HOP-62 NSCLC | 786-0 renal | XF 498 CNS | M19-MEL melanoma | HOP-92 NSCLC | SK-MEL-2 melanoma | EKVX NSCLC | DLD-1 colon | SNB-75 CNS | UACC-62 melanoma | OVCAR-5 ovarian | MOLT-4 leukemia | A549 NSCLC | SN12C renal | SNB-19 CNS | RXF 393 renal | UACC-257 melanoma | OVCAR-8 ovarian | OVCAR-3 ovarian | ACHN renal | SK-MEL-5 melanoma | U251 CNS | HOP-18 NSCLC | KM20L2 colon | K-562 leukemia | OVCAR-4 ovarian | SNB-78 CNS | NCI-H23 lung | NCI-H226 lung | RPMI-8226 leukemia | KM12 colon | CAKI-1 renal | MALME-3M melanoma | SK-MEL-28 melanoma | M14 melanoma | NCI-H522 lung | A498 renal | IGROV1 ovarian | UO-31 renal | HT29 colon | LXFL 529 NSCLC | CCRF-CEM leukemia | SF-295 CNS | RXF-631 renal | SK-OV-3 ovarian | HCC-2998 colon | SF-539 CNS
> 64.4 µM: NCI-H460 lung
> 55.2 µM: HCT-116 colon
> 60.7 µM: DMS 273 small cell lung
> 67.2 µM: HCT-15 colon
> 59.4 µM: SW-620 colon
> 70 µM: DMS 114 small cell lung
> 64 µM: LOX IMVI melanoma
